# Assay results taken from patent US11999727B2 (Tango Therapeutics, Inc., priority 2020, dated 2024).
# Legend:
# [1] = tested on: HAP1 MTAP-deleted cell line; experiment: Viability assay, MTAP-deleted cell line; format: cell-based; conditions: Homo sapiens, read-out: HAP1 MTAP deleted viability
# Excerpt: Table 1 additionally indicates IC50 values in a viability assay for the MTAP-deleted cell line (column 10), indicating the effect of treatment with compound on cell survival.
# PRMT5 [2] = molecular target: T1, PRMT5 (Homo sapiens, UniProt O14744); experiment: PRMT5 biochemical IC50 assay with no cofactor; conditions: PRMT5, no cofactor; read-out: No Cofactor/rel IC50
# T1 construct: purchased Viva (custom protein)
# T1 sequence (O14744 whole entry): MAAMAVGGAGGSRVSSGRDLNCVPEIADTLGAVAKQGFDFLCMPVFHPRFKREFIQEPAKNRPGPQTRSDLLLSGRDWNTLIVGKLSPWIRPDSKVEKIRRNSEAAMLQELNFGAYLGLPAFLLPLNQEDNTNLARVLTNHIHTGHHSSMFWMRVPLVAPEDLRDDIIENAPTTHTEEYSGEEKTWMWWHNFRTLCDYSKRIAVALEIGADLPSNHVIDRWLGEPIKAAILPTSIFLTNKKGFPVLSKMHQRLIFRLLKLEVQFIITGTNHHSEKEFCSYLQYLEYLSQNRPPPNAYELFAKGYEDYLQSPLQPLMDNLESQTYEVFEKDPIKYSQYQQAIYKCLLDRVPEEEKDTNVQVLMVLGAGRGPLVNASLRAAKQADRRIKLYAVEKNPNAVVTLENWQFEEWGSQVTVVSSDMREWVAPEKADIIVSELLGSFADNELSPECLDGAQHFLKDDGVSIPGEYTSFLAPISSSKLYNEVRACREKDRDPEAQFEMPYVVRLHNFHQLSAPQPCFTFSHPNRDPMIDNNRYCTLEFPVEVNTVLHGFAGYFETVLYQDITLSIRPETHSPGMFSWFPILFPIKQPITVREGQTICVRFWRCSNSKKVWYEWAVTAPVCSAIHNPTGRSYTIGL
# T1 sequence (Q9BQA1 whole entry partner): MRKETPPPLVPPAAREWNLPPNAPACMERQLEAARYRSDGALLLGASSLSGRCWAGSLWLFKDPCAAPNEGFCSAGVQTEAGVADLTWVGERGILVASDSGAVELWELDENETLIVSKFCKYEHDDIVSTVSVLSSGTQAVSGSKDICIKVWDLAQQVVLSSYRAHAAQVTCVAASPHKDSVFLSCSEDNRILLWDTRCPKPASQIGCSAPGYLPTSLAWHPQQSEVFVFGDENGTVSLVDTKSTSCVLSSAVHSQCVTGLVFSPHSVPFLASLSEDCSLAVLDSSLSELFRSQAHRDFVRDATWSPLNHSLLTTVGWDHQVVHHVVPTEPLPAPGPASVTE
# Excerpt: Table 1 indicates IC50 values (μM) against PRMT5 for exemplary compounds in the presence of SAM as cofactor, with no cofactor, and with MTA as cofactor, respectively (columns 4-6). […] Ki values can be calculated from the IC50 values as described in the Examples section. As detailed in the Examples section, for the assay performed in the presence of SAM, IC50=Ki×1.5 (Ki=IC50/1.5).
# PRMT5 [3] = molecular target: T1, PRMT5; experiment: PRMT5 biochemical IC50 assay with SAM as cofactor; conditions: PRMT5, SAM as cofactor; read-out: SAM IC50
# [4] = tested on: HAP1 MTAP-deleted cell line; experiment: SDMA in-cell western assay, HAP1 MTAP-deleted; format: cell-based; conditions: for IC50: Homo sapiens, HAP1, SDMA in-cell western, HAP1 MTAP-deleted; for MTAP intact/deleted ratio: SDMA in-cell western
# Summary of the method: (§1)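 IC50 values come from SDMA signal quantified by in-cell western in two HAP1 lines, one with native MTAP levels and one lacking MTAP.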
# PRMT5 [5] = molecular target: T1, PRMT5; experiment: PRMT5 biochemical IC50 assay with MTA as cofactor; conditions: PRMT5, MTA as cofactor; read-out: MTA IC50
# [6] = tested on: HAP1 MTAP-intact cell line; experiment: SDMA in-cell western assay, HAP1 MTAP-intact; format: cell-based; conditions: Homo sapiens, HAP1, SDMA in-cell western, HAP1 MTAP-intact; read-out: MTAP HAP1 intact IC50
# Summary of the method: as §1
# [7] = HAP1, viability assay, MTAP-deleted cell line
# [8] = read-out: HAP1 MTAP deleted IC50
# [9] = IC50 ratio HAP1 MTAP-intact / HAP1 MTAP-deleted
# [10] = HAP1, viability IC50, MTAP-deleted cell line
# [11] = read-out: HAP 1 MTAP deleted IC50
# [12] = HAP1, viability assay, HAP1 MTAP-deleted
SMILES,"IC50 [1, 7] [nM]",IC50 (PRMT5 [2]) [nM],IC50 (PRMT5 [3]) [nM],"IC50 [4, 8] [nM]","MTAP intact/deleted ratio [4, 9]",IC50 (PRMT5 [5]) [nM],IC50 [6] [nM],"IC50 [1, 10] [nM]","IC50 [4, 11] [nM]","IC50 [1, 12] [nM]",MTAP intact/deleted ratio ([4]; IC50 ratio HAP1 MTAP-intact vs HAP1 MTAP-deleted)
"CNc1ccc([C@@H]2CC[C@@H](C)CN2C(=O)C(=O)Nc2cnc(N)c(C)c2)cc1 (racemic) [Compound 498, N-(6-amino-5-methyl-3-pyridyl)-2-[(2S,5R)-5-methyl-2-[4-(methylamino)phenyl]-1-piperidyl]-2-oxo-acetamide]",< 1000,50 to 500,50 to 500,< 100,A (an IC50 ratio greater than or equal to 10 fold),50 to 500,> 1000,–,–,–,–
"C[C@@H]1CC[C@@H](c2cc(F)c(O)c(F)c2)N(C(=O)C(=O)Nc2cncc(C(N)=O)c2)C1 (racemic) [Compound 560, rac-5-[[2-[(2R,5S)-2-(3,5-difluoro-4-hydroxy-phenyl)-5-methyl-1-piperidyl]-2-oxo-acetyl]amino]pyridine-3-carboxamide]",–,50 to 500,50 to 500,–,A (an IC50 ratio greater than or equal to 10 fold),50 to 500,> 1000,> 10000,100 to 1000,–,–
"CNc1ccc([C@@H]2CC[C@@H](C)CN2C(=O)C(=O)Nc2cnc(N)c(C)c2)cn1 (single isomer, unassigned) [Compound 864]",–,< 50,50 to 500,< 100,B (an IC50 ratio greater than or equal to 3 fold but lower than 10 fold),< 50,100 to 1000,–,–,< 1000,–
"Cc1cc(NC(=O)C(=O)N2C[C@H](C)CC[C@H]2c2ccc3[nH]c(=O)ccc3c2)cnc1N (racemic) [Compound 671, rac-N-(6-Amino-5-methyl-3-pyridyl)-2-[5-methyl-2-(2-oxo-1H-quinolin-6-yl)-1-piperidyl]-2-oxo-acetamide]",–,50 to 500,50 to 500,–,B (an IC50 ratio greater than or equal to 3 fold but lower than 10 fold),< 50,100 to 1000,< 1000,< 100,–,–
"CCc1cc(NC(=O)C(=O)N2C[C@@H](C)CC[C@@H]2c2ccc(C(=O)NC)s2)cnc1N (single isomer, unassigned) [Compound 840]",–,< 50,50 to 500,< 100,A (an IC50 ratio greater than or equal to 10 fold),< 50,100 to 1000,–,–,< 1000,–
"C[C@@H]1CC[C@@H](C2CCC2)N(C(=O)C(=O)Nc2cncc(C(N)=O)c2)C1 (single isomer, unassigned) [Compound 216]",> 10000,> 500,> 500,> 1000,C (an IC50 ratio of less than 3 fold),> 500,> 1000,–,–,–,–
"CCc1cc(NC(=O)C(=O)N2C[C@@H](C)CC[C@@H]2c2ccc3sc(CCN4CCCC4)nc3c2)cnc1N [Compound 1095, N-(6-amino-5-ethylpyridin-3-yl)-2-((2R,5S)-5-methyl-2-(2-(2-(pyrrolidin-1-yl)ethyl)benzo[d]thiazol-5-yl)piperidin-1-yl)-2-oxoacetamide]",< 1000,< 50,< 50,< 100,–,< 50,< 100,–,–,–,A (an IC50 ratio greater than or equal to 10 fold)
"C[C@@H]1CC[C@@H](c2ccc(N3CCCC3)nc2)N(C(=O)C(=O)Nc2cncc(C(N)=O)c2)C1 (racemic) [Compound 207, rac-5-{2-[(2R,5S)-5-methyl-2-[6-(pyrrolidin-1-yl)pyridin-3-yl]piperidin-1-yl]-2-oxoacetamido}pyridine-3-carboxamide]",1000 to 10000,50 to 500,> 500,100 to 1000,A (an IC50 ratio greater than or equal to 10 fold),50 to 500,> 1000,–,–,–,–
